The values that follow come from ChEMBL document CHEMBL5661974, “Pharmacologic characterization of a potent inhibitor of class I phosphatidylinositide 3-kinases” (Cancer Res, 2007).

Structures are written as SMILES. Activity calls are given as the source filed them. The rule behind the calls is not given here.

One test relates to PC-3. As to the kind of experiment: Antiproliferative activity against human PC-3 cells harboring PTEN deletion assessed as cell growth inhibition incubated for 96 hrs by SRB assay. Type of test: functional. For orientation: Sulforhodamine B stains cellular protein and so reports cell mass.
The test system of a further test is MDA-MB-468. As to the kind of experiment: Antiproliferative activity against human MDA-MB-468 cells harboring PTEN deletion assessed as cell growth inhibition incubated for 96 hrs by SRB assay. In kind it is functional.
Test [1] concerns U-87 MG. Put plainly: Antiproliferative activity against human U-87MG cells harboring PTEN deletion assessed as cell growth inhibition incubated for 96 hrs by SRB assay. In kind it is functional, U-87MG ATCC.
Test [2] deals with HCT-116. Put plainly: Antiproliferative activity against human HCT-116 cells harboring PI3KCA mutant assessed as cell growth inhibition incubated for 96 hrs by SRB assay. In kind it is functional.
The test system of another test is Detroit 562. As to the kind of experiment: Antiproliferative activity against human Detroit 562 cells harboring PI3KCA mutant assessed as cell growth inhibition incubated for 96 hrs by SRB assay. In kind it is functional.
For another test, the system named is IGROV-1. As to the kind of experiment: Antiproliferative activity against human IGROV-1 cells harboring PI3KCA/PTEN mutant assessed as cell growth inhibition incubated for 96 hrs by SRB assay. Type of test: functional.
The subject of a further test is A2780. Put plainly: Antiproliferative activity against human A2780 cells harboring PI3KCA/PTEN mutant assessed as cell growth inhibition incubated for 96 hrs by SRB assay. Type of test: functional.
For a further test, the system named is MDA-MB-435. As to the kind of experiment: Antiproliferative activity against human MDA-MB-435 cells harboring AKT assessed as cell growth inhibition incubated for 96 hrs by SRB assay. In kind it is functional.
The next test deals with A549. As to the kind of experiment: Antiproliferative activity against human A549 cells harboring AKT assessed as cell growth inhibition incubated for 96 hrs by SRB assay. In kind it is functional.
Test [3] has as its system HCT-116. Put plainly: Inhibition of recombinant PI3K in human HCT-116 cells assessed as increase in cleavage of PARP at 10 times of GI50 concentration incubated for 24 hrs by immunoblot analysis. In kind it is cell-based.
The subject of test [4] is HCT-116. Put plainly: Inhibition of recombinant PI3K in human HCT-116 cells assessed as increase in cleavage of PARP at 5 times of GI50 concentration incubated for 24 hrs by immunoblot analysis. In kind it is cell-based. A general note: A western blot detects proteins with antibodies after separation by electrophoresis.
Test [5] deals with U-87 MG. As to conditions: Homo sapiens, time 24.0 hrs.
For test [6], the system named is U-87 MG. As to conditions: Homo sapiens, time 24.0 hrs. The source holds these as a separate data set.

One may read the GI50 as the concentration giving 50% growth inhibition. On to `O=c1cc(N2CCOCC2)oc2c(-c3ccccc3)cccc12` [LY-294002], for which the GI50 amounted to 4.6 µM in the test on PC-3; 6.5 µM in the test on MDA-MB-468; 9.8 µM with U-87 MG [1]; 10.5 µM with HCT-116 [2]; 12.1 µM in the test with Detroit 562; 5.5 µM in the test with IGROV-1. Moreover, the concentration for 50% growth inhibition (GI50) in the test on A2780 was 5.58 µM; in the test with MDA-MB-435 it was 15.3 µM; in the test on A549, 9 µM. The inhibition result with HCT-116 [3], in the test on HCT-116 [4], in the test on U-87 MG [5] and with U-87 MG [6] was “Active” throughout.
